# Measured values: patent US6677344B2, “Chymase inhibitor for the treatment of eosinophilia” (Daiichi Suntory Pharma Co., Ltd., priority 2000, dated 2004)
# pIC50: −log10 of the molar value.
# Columns and labels:
# [1] = tested on: eosinophils in the peripheral blood of Nb infected mice; test: Increase in eosinophils of mice infected with Nippostrongylus brasiliensis (Nb); assay type: in vivo
# Protocol: (§1) Male BALB/c mice (7-weeks old) were transcutaneously inflected with 750 parasitic worms of Nippostrongylus brasiliensis (Nb) (third stage larvae) in accordance with an already reported method (Int. Arch. Allergy Immunol. 117, Suppl. 1, 2, 1998). After two weeks, the number of eosinophils in the peripheral blood and the total number of leukocytes in the peripheral blood were measured. Further, at day 7 and day 10, the number of eggs in the feces was measured. The chymase inhibitor (Compound 18) was dissolved in saline and injected intraperitoneally in 0.2 ml amounts once a day continuously from the day before infection until the end of the test. Note that the control group was administered only saline. The number of cells in the peripheral blood was measured by sampling peripheral blood from the eye cavity. The eosinophils were stained with a Hinkelman's solution, then counted under a microscope. Further, the total number of leukocytes was measured under a microscope after staining with by a Turk's solution. The number of eggs in the feces was determined by obtaining individual feces of the mice, measuring their weight, then dissolving them in 1 ml of 10% formalin, counting the number of eggs in the feces solution under a microscope, then expressing the result as the number of eggs per gram of feces.
# [2] = tested on: Nippostrongylus brasiliensis (Nb); test: Number of eggs in feces in Nb infected mice; assay type: in vivo
# Protocol: as §1
# [3] = biological target: T1, Human heart chymase (Homo sapiens, UniProt P23946); test: Measurement of chymase inhibitory activity; assay type: biochemical; details: substrate Suc-Ala-Ala-Pro-Phe-MCA, 30° C., pH 7.5
# T1 construct: Human heart chymase was purified according to the method of Urata et al; from tissue; host or cells: human heart
# T1 sequence (P23946 22-247): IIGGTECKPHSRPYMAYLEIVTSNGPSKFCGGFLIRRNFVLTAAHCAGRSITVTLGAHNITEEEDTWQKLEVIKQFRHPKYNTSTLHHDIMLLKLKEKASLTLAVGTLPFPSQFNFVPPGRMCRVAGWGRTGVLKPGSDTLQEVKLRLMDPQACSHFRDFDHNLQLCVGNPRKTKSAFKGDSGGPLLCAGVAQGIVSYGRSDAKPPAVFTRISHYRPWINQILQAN
# Protocol: Human heart chymase was purified according to the method of Urata et al. (J. Biol. Chem., 1990, 265, 22348). The inhibitory activity of the compound of the present invention was determined as follows. Purified enzyme was diluted with 0.1M tris-HCl buffer (pH=7.5), 1M sodium chloride, and 0.01% TritonX-100 to obtain an enzyme solution having appropriate concentrations. Suc-Ala-Ala-Pro-Phe-MCA (Peptide Institute Inc.) was dissolved in 10 mM dimethyl sulfoxide (hereinafter referred to as DMSO) and diluted 20-fold with 0.1M Tris-HCl buffer (pH 7.5) containing 1M sodium chloride and 0.01% TritonX-100 to an appropriate concentration to prepare substrate solution.
# 5 μl of the test sample in DMSO was added to 75 μl of the enzyme solution and preincubated at 30° C. for 10 minutes. Then, 20 μl of the substrate solution was added to the test sample-enzyme mixture, and incubated at 30° C. Ten minutes later, 50 μl of 30% acetic acid was added to stop the enzymatic reaction, and the amount of AMC formed was determined using a fluorophotometer. At the same time, 5 μl of DMSO in stead of the test sample was added and reacted simultaneously as a control. The inhibitory activity to human chymase was calculated based on the value of the control, and then the inhibition percentage and the 50% inhibition concentration (IC50) were determined.
# [4] = 50 mg/kg, intraperitoneal once a day, BALB/c mice, 2 weeks after Nb infection
Structure (SMILES),"Number of eosinophils in peripheral blood, 2 weeks after infection ([1]; 2 mg/kg, intraperitoneal once a day, BALB/c mice, 2 weeks after Nb infection) [no./mm^3]","Number of eosinophils in peripheral blood, before infection ([1]; 2 mg/kg, intraperitoneal once a day, BALB/c mice) [no./mm^3]","Number of eosinophils in peripheral blood, 2 weeks after infection ([1]; 10 mg/kg, intraperitoneal once a day, BALB/c mice, 2 weeks after Nb infection) [no./mm^3]","Number of eosinophils in peripheral blood, before infection ([1]; 10 mg/kg, intraperitoneal once a day, BALB/c mice) [no./mm^3]","Number of eosinophils in peripheral blood, 2 weeks after infection [1, 4] [no./mm^3]","Total no. of leukocytes in peripheral blood 2 weeks after infection [1, 4] [no./mm^3]","Number of eosinophils in peripheral blood, before infection ([1]; 50 mg/kg, intraperitoneal once a day, BALB/c mice) [no./mm^3]","Effect on Nb-induced increase in the number of eosinophils ([1]; 50 mg/kg/day, Dunnett's test, 2 weeks after infection)","Effect on the total number of leukocytes in the peripheral blood ([1]; Nb infected mice, 2 weeks after infection)","No. of Nb eggs in gram of feces, Day 7 ([2]; 50 mg/kg, intraperitoneal once a day, day 7 after Nb infection)","No. of Nb eggs in gram of feces, Day 10 ([2]; 50 mg/kg, intraperitoneal once a day, day 10 after Nb infection)",Difference in number of eggs of Nb versus group not administered ([2]; day 7 or day 10 after Nb infection),pIC50 [3]
"Nc1cc(S(=O)(=O)n2c(=O)[nH]c3cc(Cl)ccc3c2=O)ccc1C(=O)[O-].[Na+] [Compound 18, 4-[(7-chloro-2,4(1H,3H)-quinazolinedion-3-yl)sulfonyl]anthranilic acid monosodium salt]",1036 ± 240,30 ± 12,818 ± 155,36 ± 11,360 ± 66,5820 ± 460,32 ± 16,significantly suppressed,little effect,30541 ± 12501 eggs per gram of feces,558 ± 1248 eggs per gram of feces,almost no difference,
"CC(C(=O)O)C(=O)Nc1cccc(S(=O)(=O)n2c(=O)[nH]c3cc(Cl)ccc3c2=O)c1 (stereo not shown) [Compound 13, 2-{3-[(7-chloro-2,4(1H,3H)-quinazolinedion-3-yl)sulfonyl]phenylaminocarbonyl}propionic acid]",,,,,,,,,,,,,6.52
